According to patent US20230348487A1, “2-AMINOPYRIMIDINE COMPOUND AND PHARMACEUTICAL COMPOSITION THEREOF AND APPLICATION THEREOF” (GUANGZHOU SALUSTIER BIOSCIENCES CO., LTD., priority 2021, published 2023):

What was measured:
[1] = system: human acute myeloid leukemia cell line U937; assay: CCK-8 in vitro proliferation inhibition; type: cell-based; details: Homo sapiens, U-937, 72 hours, read-out: Inhibitory activity (IC50) on cell proliferation, U937
[2] = system: human chronic myeloid leukemia cell line K562; assay: CCK-8 in vitro proliferation inhibition; type: cell-based; details: Homo sapiens, K562, 72 hours, read-out: Inhibitory activity (IC50) on cell proliferation, K562
[3] = In vivo pharmacokinetic properties in rats; parameters: species or system SD rats; details: rat
Description: Species: SD rats, SPF grade.
Number of rats: 3 in each group, male.
The animals in the oral administration group were fasted overnight (10-14 hours) before administration, and were fed 4 hours after administration. The animals were weighed before administration, and the dosage was calculated based on body weight. The drug was administered intravenously (iv, 5 mg/kg) or orally by gavage (po, 15 mg/kg). Blood was collected from jugular vein at 0.083 h, 0.25 h, 0.5 h, 1 h, 2 h, 4 h, 6 h, and 8 h after administration. About 0.20 mL of each sample was collected, anticoagulated with heparin sodium, placed on ice after collection, and centrifuged to separate plasma within 1 hour (centrifugation condition: 6800 g, 6 minutes, 2-8° C.). Plasma samples were stored in a −80° C. freezer until analysis. […] Pharmacokinetic parameters were calculated using Phoenix WinNonlin7.0 based on the blood drug concentration data at different time points, providing the pharmacokinetic parameters and their average values, and standard deviations.

[4] = system: phosphorylation of JAK3 and STAT5 in U937 cells; assay: Wash out experiment in U937 cells; type: cell-based, human; details: 200 nM 10 hours then removed
Description: Cell line: human acute myeloid leukemia cell line U937
After 200 nM test compound LS6-45 was co-incubated with U937 cells for 10 hours, the supernatant was discarded by centrifugation. The cells were collected and washed with PBS to remove residual compounds. After adding fresh culture medium, the cells continued to be cultured in a 37° C. incubator. Cells were collected at 0, 0.5, 1, 2, 4, 8, 12, and 16 hours, and protein was extracted for Western blot analysis.

U937 cells [5] = assay: Cell cycle detection in U937 cells; type: cell-based, human; details: 24 hours
Description: Cell cycle detection: Took cells in good growth status and adjusted the density to 8×10^5 cells/mL, and evenly distributed them into 6-well plates, 2 mL per well. Then the compound was diluted in gradient and added to the cell suspension, and incubated in an incubator for 24 hours. BD Cycletest™ Plus DNA Reagent Kit was used for staining in this experiment. After 24 hours, the cells were collected into a 15 mL centrifuge tube, and the 6-well plate was washed twice with PBS. The washing solutions were merged into a 15 mL centrifuge tube, centrifuged at 12000 rpm for 5 minutes, and the supernatant was discarded. Added 5 mL of buffer solution to each tube and the cells were gently resuspended. Centrifuge: 12000 rpm for 5 minutes, the supernatant was carefully removed and left about 50 μL of liquid without discarding. Added 1.5 mL of buffer solution to each tube to gently resuspend the cells, which were carefully transferred to a 1.5 mL EP tube. Adjusted the cell concentration to 1×10^6 cells/mL, to meet the requirements of 5×10^5 cells to complete this experiment. Centrifuged at 1200 rpm for 5 minutes, and the supernatant was carefully aspirated. Added 125 μL of Solution A, mixed gently and reacted at room temperature for 10 minutes. Added 100 μL of Solution B, mixed gently and reacted at room temperature for 10 minutes. […]

U937 cells [6] = assay: Cell apoptosis detection in U937 cells; type: cell-based, human; details: 48 hours
Description: Cell apoptosis detection: Took cells in good growth status and adjusted the density to 8×10^5 cells/mL, evenly distributed them into 6-well plates, 2 mL per well. Then the compound was diluted in gradient and added to the cell suspension, and placed in the incubator for 48 hours. PE coupled Annexin V apoptosis detection kit was used for staining in this experiment. After 48 hours, cells were collected into a 15 mL centrifuge tube, and the 6-well plate was washed twice with PBS. The washing solutions were merged into a 15 mL centrifuge tube, centrifuged at 1200 rpm for 5 minutes, and the supernatant was discarded. The cells were washed with 1.5 mL of cold PBS and resuspended and transferred to a 1.5 mL EP tube. Repeated washing with cold PBS once and after centrifugation at 1200 rpm for 5 minutes, discarded the supernatant. Added 100 μL of 1×Binding Buffer (PBS dilution) to resuspend the cells. Added 2.5 μL of Annexin V-PE and 2.5 μL 7-AAD, mixed gently and reacted at room temperature in the dark for 15 minutes. Added 400 μL of 1× Binding Buffer, and then perform detection with an up-flow cytometry within 1 hour. Note: It is necessary to set up a single label control tube with apoptotic cells, and sample tubes with the same conditions; place the stained samples on ice.

Question: What does the source list for C=CC(=O)Nc1cc(Nc2ncc(Cl)c(O[C@@H]3CO[C@H]4[C@@H]3OC[C@H]4OC)n2)ccc1N(C)CCN(C)C [LS 6-45]?
Answer: IC50 [1]: 20.2 nM; IC50 [2]: 335 nM; clearance ([3]; male, SD, plasma, iv 5 mg/kg): 155 ± 2.83 mL/min/kg; AUC(0-∞) ([3]; iv 5 mg/kg): 536.99 ± 9.89 ng·h/mL; Cmax ([3]; iv 5 mg/kg): 911.33 ± 139.73 ng/mL; AUC(0-∞) ([3]; po 15 mg/kg): 333.50 ± 45.52 ng·h/mL; Cmax ([3]; po 15 mg/kg): 238.28 ± 13.68 ng/mL; F (oral availability) ([3]; po 15 mg/kg): 20.66 ± 2.83%; F (oral availability) ([3]; po 15 mg/kg, listed as LS6-45): 20.66%; phosphorylation levels of JAK3 and STAT5 after wash out ([4]; between 8-12 hours): slowly recovered; phosphorylation levels of JAK3 and STAT5 after wash out ([4]; within 8 hours): continuously inhibited; cell cycle related proteins (CDK2, CDK4, CDK6, Cyclin B1, Cyclin D3, Cyclin E1) (U937 cells [5]): significantly down-regulated; cell cycle (U937 cells [5]; different concentrations): obvious G0/G1 phase block; cell apoptosis (U937 cells [6]): No apoptosis was observed
